This is an account of results in EP0384380A2, “Novel peptide derivatives and their pharmaceutical use” (JAPAN TOBACCO INC., priority 1989, dated 1990).

Read-outs that look alike come from different tables or passages of the source.

Assay type in all cases: in vivo
Test [1] has as its system ICR male mice. Description: Anti-reserpine action (antagonistic action against hypothermia). The note with it: SC, mice given reserpine 5 mg/kg s.c., test compound 3 or 3.5 hours later, estimated from regression line; for ED (1 degC rise in body temperature): Mus musculus, 2 h, read-out: Concentration of test compound necessary for raising body temperature by 1 °C on the average for 120 minutes. On the procedure: Anti-reserpine action (Antagonistic action against hypothermia)
ICR male mice weighing 35 - 40 g were subcutaneously administered with reserpine at the dose of 5 mg/kg. About 2 hours later, each of the mice was held by a mouse-holder, and a body temperature sensor was intrarectally inserted. Thereafter, the body temperature was automatically measured every 10 minutes. The test compound dissolved in saline was subcutaneously administered 3 or 3.5 hours after administration of reserpine. After the administration of the test compound, the body temperature was measured every 10 minutes over the period of 120 minutes. The area below the body temperature line during the period was calculated, from which the regression line was estimated based upon least square method, and estimated was the amount of the test compound necessary for raising the body temperature by 1 °C on the average for 120 minutes from that just before the administration of the test compound (Table 1).

Test [2] deals with ICR male mice. The test can be described thus: Anti-chlorpromazine action (locomotor stimulant action). The note with it: SC, mice given chlorpromazine HCl 5 mg/kg s.c., test compound one hour later, estimated from regression line; for ED (3000 locomotor counts): Mus musculus, 2 h, read-out: Concentration of test compound necessary for inducing 3000 count of automatism quantity in 2 hours. The protocol: Anti-chlorpromazine action (Locomotor stimulant action)
ICR male mice weighing 35 - 40 g (four animals per group) were subcutaneously administered with chlorpromazine HCI at the dose of 5 mg/kg and immediately set in the automatic locomotor-measuring apparatus (AUTOMEX). One hour later, the test compound dissolved in saline was subcutaneously administered, and the locomotor activity was measured every 15 minutes for 120 minutes. The total locomotor activity during the period of 120 minutes was calculated and the regression line was estimated based on the method of least squares, from which the amount of the test compound necessary for inducing 3000 locomotor-count was estimated (Table 2).

The next test concerns Wistar male rats. Description: Flexor reflex in spinalized rats. On the set-up: key to Area below the reflex amplitude linking line: area under % amplitude vs. time line over 60 min (pre-dose = 100%). The note with it: pre-dose amplitude = 100%; for response vs control in vivo at 0.1 mg/kg / response vs control in vivo at 0.3 mg/kg: Rattus norvegicus; for Area below the reflex amplitude linking line: covering 60 minutes. On the procedure:
Flexor reflex in spinalized rats
Wistar male rats (weighing 450 - 520 g) were anesthetized with ether, and the cervical part of spinal cord was exposed, into which a tracheal cannula was inserted. The vagus nerves were severed bilaterally at the cervical region. Thereafter, the cervical vertebra C1 segment was transected, and rapidly, artificial ventilation was given with the use of an artificial respirator (Shinano Factory 60 rpm. 4 ml/stroke). The rat was placed on a thermostated apparatus in which water thermostated at 37 C was circulated and fixed thereto at forelimbs, right hindlimb, tooth and tail. A venous cannula was inserted into the femoral vein in the right hindlimb and two needle electrodes were subcutaneously inserted into the left skin of the toe, and a piece of thread was attached to the limb with the edge of the thread bonded to a force-displacement - transducer. Tension of about 5 g was applied to the thread. Through the elctrodes, electric stimuli of 50 - 100 V were applied once per 30 seconds. The flexor reflex was recorded on the polygraph via a force-displacement transducer. After the reaction became constant in about one-hours' lapse for stabilization, the test compound dissolved in saline was intravenously administered. Thereafter, the reaction was recorded for 1 hour. In the data, taking the mean of the three reactions just before administration of the test compound for 100%, the reflex amplitude at 1-, 3-, 5-, 8-, 10-, 15-, 20-, 30-, 40-, 50- and 60- minutes' lapse after administration of the test compound were calculated. In Table 3, there are shown calculated area below the straight line linking the obtained reflex amplitude at the respective above-mentioned time covering 60 minutes in the case of administration of each test compounds at the dose of 0.1 mg/kg, and the reflex amplitude at 10- and 60-minutes' lapse after administration (Table 3).

[3] abbreviates: 10 min, intravenous administration at the dose of 0.1 mg/kg, read-out: Reflex amplitude (%) 10 min. after.
The mark [4] stands for this setting: 10 min, intravenous administration at the dose of 0.3 mg/kg (footnote *), read-out: Reflex amplitude (%) 10 min. after.
The mark [5] stands for this setting: intravenous administration at the dose of 0.1 mg/kg.
Where [6] appears, read: intravenous administration at the dose of 0.3 mg/kg (footnote *).
Setting [7] is: 1 h, intravenous administration at the dose of 0.1 mg/kg, read-out: Reflex amplitude (%) 60 min. after.

As to `C[C@@H]1CC(=O)C[C@H]1C(=O)N[C@@H](Cc1c[nH]cn1)C(=O)N1CCC[C@H]1C(N)=O` (mixture of isomers) [Compound 20, N^α-(trans-2-Methyl-4-oxocyclopentanecarbonyl)-L-histidyl-L-prolinamide], in the test on ICR male mice [1], the ED (1 degC rise in body temperature) is 0.27 mg/kg. The ED (3000 locomotor counts) in the test on ICR male mice [2] is 1.3 mg/kg. Besides, the response vs control in vivo at 0.1 mg/kg with Wistar male rats (setting [3]) was 105%. For the same molecule, the response vs control in vivo at 0.3 mg/kg in the test with Wistar male rats (setting [4]) amounted to 129%. The “Area below the reflex amplitude linking line” value with Wistar male rats (setting [5]) is on record as 6317; in the test on Wistar male rats (setting [6]), 10355.

For the molecule `NC(=O)C1CCCN1C(=O)C(Cc1c[nH]cn1)NC(=O)C1CCC(=O)O1` (centres unmarked) [DN1417, reference compound], the ED (1 degC rise in body temperature) in the test with ICR male mice [1] is 2.06 mg/kg. For the same molecule, the ED (3000 locomotor counts) with ICR male mice [2] was 4.34 mg/kg. The response vs control in vivo at 0.3 mg/kg with Wistar male rats (setting [4]) is 114%; in the test with Wistar male rats (1 h, intravenous administration at the dose of 0.3 mg/kg (footnote *), read-out: Reflex amplitude (%) 60 min. after), 163%. In addition, in the test on Wistar male rats (setting [6]), the “Area below the reflex amplitude linking line” value was 8152.

Consider `NC(=O)[C@@H]1CCCN1C(=O)[C@H](Cc1c[nH]cn1)NC(=O)C1CCC(=O)C1` (stereo partly drawn) [Compound 13, N^α-(3-Oxocyclopentanecarbonyl)-L-histidyl-L-prolinamide], for which the ED (1 degC rise in body temperature) with ICR male mice [1] is 0.71 mg/kg. Besides, the ED (3000 locomotor counts) with ICR male mice [2] is 1.03 mg/kg. Further, the response vs control in vivo at 0.1 mg/kg in the test with Wistar male rats (setting [3]) worked out at 110%. Also, the “Area below the reflex amplitude linking line” value in the test on Wistar male rats (setting [5]) was determined as 8572.

Regarding `C[C@H]1CC(=O)C[C@H]1C(=O)N[C@@H](Cc1c[nH]cn1)C(=O)N1CCC[C@H]1C(N)=O` (mixture of isomers) [Compound 19, N^α-(cis-2-Methyl-4-oxocyclopentanecarbonyl)-L-histidyl-L-prolinamide], the ED (1 degC rise in body temperature) in the test on ICR male mice [1] is 0.14 mg/kg. Besides, the ED (3000 locomotor counts) with ICR male mice [2] is 0.54 mg/kg. For the same molecule, the response vs control in vivo at 0.1 mg/kg with Wistar male rats (setting [3]) amounted to 138%. Further, in the test on Wistar male rats (setting [4]), the response vs control in vivo at 0.3 mg/kg was 250%. Besides, the “Area below the reflex amplitude linking line” value in the test on Wistar male rats (setting [5]) turned out to be 11860; with Wistar male rats (setting [6]) it was 19114.

Regarding `NC(=O)[C@@H]1CCCN1C(=O)[C@H](Cc1c[nH]cn1)NC(=O)[C@H]1NC(=O)C[C@@H]1c1ccccc1` (relative stereo) [Compound 10, N^a-(trans-3-Phenylpyroglutamyl)-L-histidyl-L-prolinamide], the “Concentration of test compound necessary for raising body temperature by 1 °C on the average for 120 minutes” value in the test on ICR male mice [1] is 0.53 mg/kg. Besides, in the test with ICR male mice [2], the “Concentration of test compound necessary for inducing 3000 count of automatism quantity in 2 hours” value was 1.89 mg/kg. Also, in the test on Wistar male rats (setting [5]), the “Area below the reflex amplitude linking line” value is 16593, the “Reflex amplitude (%) 10 min. after” value is reported as 242.7% and the “Reflex amplitude (%) 60 min. after” value was 329.2%.

On to `C[C@@H]1CC(=O)O[C@@H]1C(=O)N[C@@H](Cc1c[nH]cn1)C(=O)N1CCC[C@H]1C(N)=O` [Compound 5, N^α-[(2S,3R)-Tetrahydro-3-methyl-5-oxo-2-furancarbonyl]-L-histidyl-L-prolinamide], for which the ED (1 degC rise in body temperature) in the test with ICR male mice [1] was 0.12 mg/kg. Besides, the ED (3000 locomotor counts) with ICR male mice [2] is 0.7 mg/kg. Further, the response vs control in vivo at 0.1 mg/kg in the test on Wistar male rats (setting [3]) is 132%. Further, the “Area below the reflex amplitude linking line” value in the test on Wistar male rats (setting [5]) came out at 9221.

On to `NC(=O)[C@@H]1CCCN1C(=O)[C@H](Cc1c[nH]cn1)NC(=O)[C@H]1NC(=O)C[C@H]1c1ccccc1` (relative stereo) [Compound 11, N^α-(cis-3-Phenylpyroglutamyl)-L-histidyf-L-prolinamide], for which the “Concentration of test compound necessary for raising body temperature by 1 °C on the average for 120 minutes” value with ICR male mice [1] is recorded as 0.28 mg/kg. The “Concentration of test compound necessary for inducing 3000 count of automatism quantity in 2 hours” value in the test with ICR male mice [2] was 1.89 mg/kg. In the test with Wistar male rats (setting [5]), the “Area below the reflex amplitude linking line” value worked out at 11321, the “Reflex amplitude (%) 10 min. after” value came out at 140.4% and the “Reflex amplitude (%) 60 min. after” value was 240.8%.

For the molecule `C[C@@H]1CC(=O)N[C@@H]1C(=O)N[C@@H](Cc1c[nH]cn1)C(=O)N1CCC[C@H]1C(N)=O` [Compound 1, N^α-(cis-3-Methylpyroglutamyt)-L-histidyl-L-prolinamide], the ED (1 degC rise in body temperature) in the test on ICR male mice [1] is 0.3 mg/kg. For the same molecule, in the test with ICR male mice [2], the ED (3000 locomotor counts) was 0.51 mg/kg. Also, in the test on Wistar male rats (setting [3]), the response vs control in vivo at 0.1 mg/kg is 159%. Further, the “Area below the reflex amplitude linking line” value in the test on Wistar male rats (setting [5]) was 12970.

Turning to `NC(=O)[C@@H]1CCCN1C(=O)[C@H](Cc1c[nH]cn1)NC(=O)[C@@H]1CCC(=O)C1` [Compound 16, N^a-[(1 R)-3-Oxocyclopentanecarbonyl]-L-histidyl-L-prolinamide], the ED (1 degC rise in body temperature) in the test on ICR male mice [1] is 0.12 mg/kg. In addition, the ED (3000 locomotor counts) in the test with ICR male mice [2] was 0.88 mg/kg. For the same molecule, the response vs control in vivo at 0.1 mg/kg with Wistar male rats (setting [3]) was 152%. The “Area below the reflex amplitude linking line” value in the test with Wistar male rats (setting [5]) is 12016.

Turning to `C[C@H]1CC(=O)N[C@@H]1C(=O)N[C@@H](Cc1c[nH]cn1)C(=O)N1CSC[C@H]1C(N)=O` [Compound 4, 3-[N^α-(trans-3-Methylpyroglutamyl)-L-histidyl]-L-thiazolidine-4-carboxamide], the ED (1 degC rise in body temperature) in the test on ICR male mice [1] is 0.34 mg/kg. For the same molecule, the ED (3000 locomotor counts) in the test on ICR male mice [2] was 0.63 mg/kg. For the same molecule, the response vs control in vivo at 0.1 mg/kg in the test on Wistar male rats (setting [3]) was found to be 143%; with Wistar male rats (setting [7]), 164%. Moreover, in the test with Wistar male rats (setting [5]), the “Area below the reflex amplitude linking line” value was 9404.

For the molecule `C[C@@H]1CC(=O)N[C@@H]1C(=O)N[C@@H](Cc1c[nH]cn1)C(=O)N1CSC[C@H]1C(N)=O` [Compound 3, 3-[N^α-(cis-3-Methylpyroglutamyt)-L-histidyl]-L-thiazolidine-4-carboxamide], in the test with ICR male mice [1], the ED (1 degC rise in body temperature) is 0.2 mg/kg. Also, the ED (3000 locomotor counts) with ICR male mice [2] was 0.47 mg/kg. Further, the response vs control in vivo at 0.1 mg/kg with Wistar male rats (setting [3]) was 190%; in the test with Wistar male rats (setting [7]) it was 278%. The “Area below the reflex amplitude linking line” value with Wistar male rats (setting [5]) was found to be 13811.

With `CC1(C)CC(=O)CC1C(=O)N[C@@H](Cc1c[nH]cn1)C(=O)N1CCC[C@H]1C(N)=O` (stereo partly drawn) [Compound 21, N^α-(2,2-Dimethyl-4-oxocyclopentanecarbonyl)-L-histidyl-L-prolinamide], in the test on ICR male mice [1], the ED (1 degC rise in body temperature) was 0.18 mg/kg. In addition, the ED (3000 locomotor counts) in the test on ICR male mice [2] is 0.83 mg/kg. Moreover, in the test with Wistar male rats (setting [3]), the response vs control in vivo at 0.1 mg/kg worked out at 115%. For the same molecule, the response vs control in vivo at 0.3 mg/kg in the test with Wistar male rats (setting [4]) came to 170%. In addition, the “Area below the reflex amplitude linking line” value is 7186 with Wistar male rats (setting [5]) and 14294 with Wistar male rats (setting [6]).

With `NC(=O)[C@@H]1CCCN1C(=O)[C@H](Cc1c[nH]cn1)NC(=O)[C@@H]1CCC(=O)N1` [TRH, L-pyroglutamyl-L-histidyl-L-prolinamide, reference compound], the ED (3000 locomotor counts) with ICR male mice [2] was 6.82 mg/kg. In the test on Wistar male rats (setting [3]), the response vs control in vivo at 0.1 mg/kg was 118%.

Consider `C[C@H]1CC(=O)N[C@@H]1C(=O)N[C@@H](Cc1c[nH]cn1)C(=O)N1CCC[C@H]1C(N)=O` [Compound 2, N^α-(trans-3-Methylpyroglutamyl)-L-histidyl-L-prolinamide], for which the ED (1 degC rise in body temperature) in the test with ICR male mice [1] was 1.11 mg/kg. Besides, the ED (3000 locomotor counts) with ICR male mice [2] is 12.9 mg/kg. Besides, in the test with Wistar male rats (setting [3]), the response vs control in vivo at 0.1 mg/kg was determined as 126%. Also, the “Area below the reflex amplitude linking line” value with Wistar male rats (setting [5]) is given as 7077.
